Values of other authors in patent US20010034320A1, “NK1-receptor antagonists for treating restless legs syndrome” (priority 2000, published 2001).

Test system: Restless Legs Syndrome (RLS)
Conditions: for effect on RLS complaint in therapy trials: RLS patients, therapy trials described in the background
[1] = objective polysomnographic measuring parameters, daily doses 0.1-0.9 mg

| SMILES | effect on RLS complaint in therapy trials | quality of sleep, frequency of waking or periodic leg movements in sleep (PLMS) [1] | sleep latency [1] | perceived symptoms such as paraesthesia, compulsive movement and tiredness during the day (patient-reported, daily doses 0.1-0.9 mg, 4 open trials, 2 double-blind placebo-controlled trials and a single case study) |
| --- | --- | --- | --- | --- |
| NC(=O)N1c2ccccc2C=Cc2ccccc21 [Carbamazepine] | only partial relief from the complaint |  |  |  |
| N[C@@H](Cc1ccc(O)c(O)c1)C(=O)O [L-dopa, levodopa] | significant alleviation of the complaint |  |  |  |
| Clc1cccc(Cl)c1NC1=NCCN1 [clonidine, 2-(2,6-dichloroanilino)-4,5-dihydroimidazole] |  | not affected | shortened | (statistically significant) reduction |
